Data published in PMC12266748, “A Xanthine Derivative With Novel Heat Shock Protein 90‐Alpha Inhibitory and Senolytic Properties” (Aging Cell, 2025).

Columns and labels:
[1] = target: HSP90α (Homo sapiens, UniProt P07900); assay: HSP90 N-Terminal Domain Assay Kit, fluorescence polarization competition with FITC-Geldanamycin; format: binding; set-up: purchased BPS Bioscience 50293; settings: dose-response 1 pM to 10 μM, n = 3, extrapolated with GraphPad Prism; read-out: HSP90α inhibition IC50
Method: HSP90‐directed inhibitory activity was assessed employing the HSP90 N‐Terminal Domain Assay Kit (BPS Bioscience) according to the manufacturer's instructions. The fluorescence intensity was measured with a multiplate reader (Victor Nivo‐Perkin Elmer). The IC50 was calculated by analyzing the data using GraphPad Prism 10 software.
HSP90 inhibition activity assay. […] […] […] Data are the percentage of residual enzyme activity relative to the solvent (DMSO). The IC50s were calculated by analyzing the data using GraphPad Prism 10 software.

[2] = Thermodynamic solubility, shake flask method; format: physicochemical; settings: PBS buffer; PBS pH 7.4, 24 h at 37°C
Method: (§1) APHAD S.r.l (Buccinasco, MI, Italy) performed all evaluations. Detailed protocols are reported in the extended methods section.
Thermodynamic solubility. The shake flask method measured the thermodynamic solubility of K4 and K5 in PBS buffers at pH 7.4. A saturated solution of the compounds was prepared by incubating the 2 compounds in PBS buffer for 24 h at 37°C under agitation. At the end of the incubation, samples were centrifuged, two aliquots were diluted in acetonitrile (CAN), and each sample was then injected into LC-MS/MS (ESI interface) and quantified on a calibration curve prepared by sequential dilution in ACN. Samples were analyzed on UPLC Acquity (Waters) interfaced with API 3200 (AB Sciex) Triple Quadrupole Mass spectrometer. For K4, a Synergy Polar C18 column was used (50x2, 1mm 5µm, Phenomenex, Temp 35°C, Inj volume 10 µL, mobile phase A: water +0.1% FA, and phase B: ACN 0.1% FA, gradient: 5%-98% B, flow: 0.3 mL/min). For K5, a Gemini NX C18 column was used (50x2, 1mm 5µm, Phenomenex, Temp 35°C, Inj volume 10 µL, mobile phase A: 5mM ammonium formate +0.1% FA, and phase B: MeOH +5%, gradient: 5%-98% B, flow: 0.3 mL/min).

[3] = Phase I stability in mouse liver microsomes; format: in vitro ADME; settings: 1 µM, 0.5 mg/mL microsomes
Method: as §1
Phase I stability in human and mouse liver microsomes. The metabolic stability of K4 and K5 was evaluated after incubation with mouse and human liver microsomes. Briefly, the 2 compounds were dissolved in DMSO and pre-incubated, at the final concentration of 1µM, for 10 min at 37°C in potassium phosphate buffer 50 mM, pH 7.4, 3 mM MgCl2, with mouse and human liver microsomes (Sigma) at the final concentration of 0.5 mg/mL. After the pre-incubation period, reactions were started by adding the cofactors mixture (NADP, Glc6P, Glc6P-DH in 2% Sodium bicarbonate); samples were taken at time 0, 10, 20, 30, and 60 min, and added to ACN with Verapamil 0.1 µM as Internal Standard (IS) to stop the reaction. After centrifugation, the supernatants were analyzed using LC-MS/MS. A control sample without cofactors was added to check the stability of test compounds in the matrix after 60 min. 7-Ethoxycoumarin (7-EC) and propranolol were added as positive reference standards. Samples were analyzed on Acquity UPLC (Waters) coupled with an API 3200 Triple Quadrupole ABSciex. […] The percent of the area of the test compound remaining at the various incubation times was calculated based on the area of the compound at time 0 min. […]

[4] = target: GRP94 (Homo sapiens, UniProt P14625); assay: Cellular thermal shift assay (CETSA) on cellular lysates, GRP94; settings: 46°C, compound 0.5 mM
GRP94, sequence (P14625 22-803): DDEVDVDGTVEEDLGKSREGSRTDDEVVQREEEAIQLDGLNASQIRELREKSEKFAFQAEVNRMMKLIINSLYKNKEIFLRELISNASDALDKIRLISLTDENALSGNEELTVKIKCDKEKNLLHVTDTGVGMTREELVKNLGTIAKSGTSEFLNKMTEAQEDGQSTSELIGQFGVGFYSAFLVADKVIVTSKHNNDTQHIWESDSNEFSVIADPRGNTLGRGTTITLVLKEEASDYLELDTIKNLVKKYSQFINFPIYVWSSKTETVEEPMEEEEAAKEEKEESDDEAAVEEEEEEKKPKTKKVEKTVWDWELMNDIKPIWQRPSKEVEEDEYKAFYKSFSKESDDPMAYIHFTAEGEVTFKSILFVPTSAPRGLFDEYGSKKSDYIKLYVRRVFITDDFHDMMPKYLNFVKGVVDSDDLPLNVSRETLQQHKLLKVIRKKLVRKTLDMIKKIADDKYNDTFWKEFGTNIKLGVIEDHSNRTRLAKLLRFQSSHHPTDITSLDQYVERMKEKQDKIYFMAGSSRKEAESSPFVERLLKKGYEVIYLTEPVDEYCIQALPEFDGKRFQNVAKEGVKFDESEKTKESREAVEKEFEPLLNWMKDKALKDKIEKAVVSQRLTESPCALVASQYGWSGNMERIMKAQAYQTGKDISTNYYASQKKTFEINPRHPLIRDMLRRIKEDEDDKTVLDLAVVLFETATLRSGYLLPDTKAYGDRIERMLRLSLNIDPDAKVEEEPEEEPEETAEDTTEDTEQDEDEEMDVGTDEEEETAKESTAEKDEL
Method: Cellular Thermal Shift Assay (CETSA). […] Briefly, the cellular extract was lysed in RIPA buffer (10 mM Tris-HCl pH 7.4, 250 mM NaCl, 1% NP40/IGEPAL, 1% DOC, 0.01% SDS, 0.01% Glycerol, supplemented with protease/phosphatase inhibitor, PI/PhI mix and 2 mM DTT) and protein concentration was determined by a BCA kit (Pierce, Life Technologies, TFS, Waltham, MA, USA). Samples were homogenized by 3 cycles of freeze-thawing using liquid nitrogen and centrifuged at 13000 rpm at 4 °C for 30 min to separate the soluble fraction from the debris.
Following the supplier's recommendations, samples were loaded into the proper cartridge (12- 230 kDa Wes/Jess Separation Modules, ProteinSimple, Biotechne, Minneapolis, MN, USA). HSP90α (1:50, MsMAb, Abcam), HSP90β (1:50, RbMAb, Abcam), GRP94 (1:50, RbMAb, Abcam), TRAP1 (1:50, MsMAb, Abcam), α-Tubulin (1:500, MsMAb, Abcam), and β-Actin (1:500, RbMAb, Abcam) were used as primary antibodies. Secondary antibodies were Anti-Mouse Secondary HRP and Anti-Rabbit Secondary HRP (ProteinSimple, Biotechne, Minneapolis, MN, USA).

[5] = Bidirectional permeability in Caco-2 cells; format: in vitro ADME; settings: 5 µM, HBSS pH 7.4, 2 hours
Method: as §1
Permeability in Caco-2 cells. To evaluate the bidirectional permeability of the 2 compounds, Caco-2 cells (ECACC, ReadyCells, Barcellona, Spain), considered a reference cellular line for in vitro preclinical evaluation of oral dosage products, were used. These cells are cultured in monolayers, which become differentiated polarized epithelial cells after 21 days, expressing tight junctions, microvilli, intracellular metabolic enzymes, and transmembrane transporters such as BCRP, MDR1, and MRP2 (an artificial model equivalent to the intestinal epithelium). […] At the end of the experiment, the integrity of the cellular junction was measured by incubating the Lucifer yellow (LY) at the apical side (at the concentration of 0.02 mg/mL in MEM medium) and with MEM medium in the basolateral compartment for 1 hour at 37°C. At the end of incubation, fluorescence was read on a fluorimeter at λ 430-538nm. Samples were analyzed on a UPLC Acquity (Waters) coupled with an API 3200 Triple Quadrupole AB Sciex. […] The apparent permeability (Papp), the efflux ratio (ER), and the Recovery (R) were calculated to allow for estimation of metabolism and non-specific binding. […] Data are expressed as mean of n=2 (± SD).

Compound | IC50 [1] [nM] | solubility thermodynamic at 24 h [2] [µg/mL] | clearance in mouse microsomes [3] | stabilization of GRP94 in CETSA [4] | Caco-2 bidirectional permeability [5]
CC(C)(C)S(=O)(=O)C/C(N)=N/OS(=O)(=O)c1ccc(F)cc1F [Compound K4, (Z)-N'-[(2,4-difluorobenzenesulfonyl)oxy]-2-(2-methylpropane-2-sulfonyl)ethanimidamide] | 155 | ~400 | medium clearance | did not observe a stabilization | no K4 signal was detected
Cc1ccccc1-n1c(=O)n(Cc2ccccc2)c(=O)c2[nH]cnc21 [Compound K5, 1-benzyl-3-(2-methylphenyl)-7H-purine-2,6-dione] | 111 | ~200 | medium clearance | did not observe a stabilization | excellent permeability in both directions
